“Also recorded” adds a separate entry of the source.
What was measured:
[1] = test system: tissue noradrenaline and dopamine content; experiment: Tissue catecholamines in SHRs after three oral doses 12 h apart; type: in vivo, spontaneously hypertensive rats; conditions: for increase in DA/NE ratio: 30 mg/kg; for dopamine vs vehicle / dopamine/norepinephrine ratio vs vehicle / norepinephrine vs vehicle: 30 mg/kg x3
Description: Male SHRs (15-16 weeks old, Charles River, Wilmington, Mass., USA) were used in in vivo studies. On the day of the study, animals were weighed and randomly assigned to be dosed with either vehicle (control) or the appropriate dose of nepicastat (3, 10, 30 or 100 mg·kg^−1, po) or Compound B (30 mg·kg^−1, po) three consecutive times, twelve hours apart. At six hours after the third dose, the rats were anaesthetized with halothane, decapitated and tissues (cerebral cortex, mesenteric artery and left ventricle) were rapidly harvested, weighed, placed in iced perchloric acid (0.4 M), frozen in liquid nitrogen and stored at −70° C. until subsequent analysis. To quantify noradrenaline and dopamine concentrations, tissues were homogenized by brief sonication and centrifuged at 13,000 rpm for 30 minutes at 4° C. The supernatant, spiked with 3,4-dihydroxybenzylamine (internal standard), was assayed for noradrenaline and dopamine by HPLC using electrochemical detection.
Nepicastat was used in in vivo biochemical studies to study the effects in spontaneously hypertensive rats (SHRs) and normal beagle dogs. On the day of the study, the animals were weighed and randomly assigned to receive either placebo (vehicle) or the appropriate dose of nepicastat. Each rat was dosed orally three times, 12 h apart, beginning in the morning. At 6 h after the third dose, the rats were anesthetized with halothane, decapitated, and the tissues (cerebral cortex, mesenteric artery and left ventricle) were rapidly harvested, weighed, placed in iced 0.4 M perchloric acid, frozen in liquid nitrogen and stored at −70° C. until analysis. Tissue NE and DA concentrations were assayed by HPLC using electrochemical detection. Male beagle dogs (10-16 kg, Marshall Farms USA Inc, North Rose, N.Y.) were used in the study. On the day of the study, dogs were randomly assigned to receive either placebo (empty capsule) or the appropriate dose of nepicastat. Each dog was dosed twice a day for 4.5 days. 6 h after the first dose on day 5, the dogs were euthanized with pentobarbital and the tissues (cerebral cortex. renal artery, left ventricle) harvested, weighed, placed in iced 0.4 M perchloric acid, frozen in liquid nitrogen and stored at −70° C. until analysis. Tissue NE and DA concentrations were assayed by HPLC using electrochemical detection.
Fifteen to sixteen week old male spontaneously hypertensive rats (SHRs) (Charles River Labs) were allowed food and water ad libitum. Animals were weighed and randomly assigned to one of the following treatment groups: 1) distilled water vehicle (dH2O), or nepicastat at 3, 10, 30, and 100 mg/kg, 2) Compound B at 30 mg/kg in distilled water, or 3) PEG 400:dH2O vehicle or SKF-102698 at 30 mg/kg. Each rat was dosed orally (p.o., using a gavage needle) three times 12 hours apart, beginning in the morning. At six hours after the third dose rats were anesthetized with halothane, decapitated, and the cortex, mesenteric artery, and left ventricle were rapidly harvested, weighed, placed in iced 0.4 M perchioric acid, frozen in liquid nitrogen, and stored at −70° C. Tissue dopamine and norepinephrine concentrations were assayed by high performance liquid chromatography and electrochemical detection.
Four series of statistical analyses were performed. The first series compared the rats treated with various doses of nepicastat, and Compound B at 30 mg/kg to the vehicle control animals. A nonparametric one-way analysis of variance (ANOVA) with factor Dose and blocking factor Day was performed for each tissue and strain separately. […] Pairwise analysis between treated and controls at each dose were carried out using Dunnett's test to control the experiment-wise error rate. The second statistical test compared SKF-102698 to the PEG-dH2O vehicle treated group using a nonparametric t-test. The third statistical test compared Compound B to nepicastat at doses of 30 mg/kg using a nonparametric t-test.

[2] = test system: short-term or working memory in rats; experiment: Delayed-matching-to-position (DMTP) test; type: in vivo, Sprague Dawley rats
Description: In the present DMTP study, rats were trained to remember the position of a lever across a scheduled delay of either 0, 8, 16 or 32 s in order to earn food reward. […] Another group of rats received only vehicle treatment throughout the experiment. […] The dependent measures in the present study included percentage of correct choices, the latency to make choice responses and the number of trials which the animals were able to complete during the 70 min test sessions. Changes in the former measure may indicate changes in memory and/or attentional function whereas changes in the latter two measures may be indicative of other non-cognitive effects of the drugs. Matching to position training began next. This and all subsequent training was conducted with the partitions fitted into the operant boxes. The sessions were initially 50 minutes long. Rats were placed in the operant box and the session began when the houselight was illuminated. Following a 30 s intertrial interval (ITI), one of the two levers (the sample lever) was inserted into the chamber. The lever remained inserted into the chamber until a lever-press response occurred. […] As soon as the magazine flap was pressed the magazine light was extinguished and both levers were inserted. […] The magazine light remained on until the flap was pressed. […] A 30 s ITI was initiated before the commencement of a new trial. The lever inserted as the sample lever was semi-randomly determined such that the right and lefthand levers were presented as the sample lever 8 times in a block of 16 trials. Following 24 sessions, the animals were performing the matching to position task with a high degree of accuracy. On Session 25 a variable delay interval was interposed between the depression of the sample lever and presentation of the levers on the choice trial. After a response to the sample lever, the choice levers were inserted following the first flap press occurring after either a 0 s (immediate), 4, 8 or 16 s delay. The order of the four types of trials (0, 4, 8 or 16 s delay) was semi-randomly determined with the constraint that in a 16 trial block, each delay occurred 4 times; twice on a left trial and twice on a right trial. […] The same trial was reinstated following the end of the ITI. From Session 25 onward the time-out period following incorrect choices was omitted and the session length was increased to 70 minutes. […] Due to poor performance at the 64 s delay, however, this delay was not used in any further sessions. On Session 59, delays of 0, 8, 16 and 32 s were used. These delays were used in all subsequent sessions. Only 51 of the 56 rats completed more than 24 trials (correction plus non-correction) during Session 59. These rats were selected and semi-randomly assigned to the following 7 groups such that the groups were matched on performance (percent correct, response latency and number of trials completed): […] Thus, the drug treatments administered to the seven groups during the 11 consecutive days of the present experiment were: The data collected and analyzed in the present DMTP study include 1) the percentage of correct responses; 2) the latency between performance of a response to the sample lever and the performance of the choice response and 3) the total number of correction and non-correction trials completed. The former two dependent measures were collected for the non-correction trials only. […] Two-way analysis of variance (ANOVA) with drug treatment as the between-subjects factor and delay (0, 8, 16 or 32 s) as the within-subjects factor was used to analyze percentage of correct choices and response latency. These analyses were conducted separately for each block of data. Significant interactions were followed by a one-way ANOVA which was conducted at each delay. A significant main effect from a one-way ANOVA was followed by a two-tailed Dunnett's t-test. One-way ANOVA followed by a post hoc Dunnett's test, when appropriate, was used to analyze the mean number of trials completed. […]

SHRs = experiment: 30-day radio-telemetry study in SHRs
rats = experiment: Chronic (10 day) dosing behavioral tests in rats
Description: The effects of chronic dosing of nepicastat in rats were examined. Between three and thirteen days prior to the first dosing day the rats were placed inside the startle apparatus and after a five minute acclimation period they were presented with a 118 dB noise burst on average once a minute (a variable inter-trial interval ranging between 30 and 90 seconds will be used) for 20 minutes. The startle responses were measured and a mean for the last twenty startle response was calculated for each rat.
The following behavioral tests were administered during and after chronic dosing; body core temperature, motor activity, acoustic startle reactivity, and pre-pulse inhibition of acoustic startle.
The animals were tested in an enclosed room with a white noise generator running Motor activity tests were conducted immediately after the body core temperature reading taken on dosing day ten (about 3 hours and 35 minutes after the morning daily dose of nepicastat, and SKF-102698, and 20 minutes prior to the daily administration of clonidine and d-amphetamine on dosing day ten). Motor activity tests were run for one hour. A diagnostic program was run on each of the motor activity chambers prior to each test session to assure that the photo beams and light sensors were operating properly. […] D-amphetamine was used as the positive control for this assay.
Rat body core temperatures were obtained by inserting the rectal probe 2 cm into the colon of each rat. Each rat's body core temperature was measured three times and the average of the three reading was calculated. Body core temperature readings were obtained immediately prior to the ten day chronic dosing schedule (to obtain a baseline), and three and half hour after the morning daily dose of nepicastat, and SKF-102698, and 15 minutes prior to the daily administration of clonidine and d-amphetamine, on dosing days one, five and ten. […] Both clonidine (an alpha2 agonist), and d-amphetamine (a dopamine releaser) were used as the positive controls for this assay.
Acoustic startle reactivity (a series of muscle contractions elicited by an intense burst of noise with a rapid onset), and pre-pulse inhibition (sensorimotor gating measured by analyzing any decrease in startle reactivity which occurs when a startling stimulus is immediately preceded by a non startling stimulus) were both measured in eight SR-Lab (San Diego Instruments, San Diego, Calif.) test stations. The rats were placed individually in a Plexiglas cylinder (10 cm diameter) which was housed in a ventilated sound-attenuating enclosure. Acoustic noise bursts (a broad band noise with a rise time and fall time of 1 msec) were presented via a speaker mounted 30 cm above the animal. Also, these speakers produced a 68 dB level of background noise throughout all test sessions. A piezoelectric accelerometer attached below the plexiglass cylinder transduced the subject's movement into a voltage which was then rectified and digitized (on a scale from 0 to 4095) by a PC computer equipped with SR-Lab software and interface assembly. A decibel meter was used to calibrate the speakers in each of the eight test station to ±1% of the mean. Additionally, a SR-Lab calibrating instrument was used to calibrate each of the eight startle detection apparatuses to ±2% of the mean. Startle reactivity and pre-pulse inhibition tests were run concurrently immediately alter the motor activity test (about 4 hours and 40 minutes after the morning daily injection of nepicastat, and SKF-102698, and 10 minutes after a supplemental administration of clonidine and d-amphetamine on dosing day ten).

`NCc1c[nH]c(=S)n1[C@@H]1CCc2c(F)cc(F)cc2C1` [Compound B, (R)-5-Aminomethyl-1-(5,7-difluoro-1,2,3,4-tetrahydronaphth-2-yl)-2,3-dihydro-2-thioxo-1H-imidazole] was tested, and the “increase in DA/NE ratio” value ([1]; cerebral cortex) was 1.1 fold, the dopamine vs vehicle ([1]; cerebral cortex) was “significant increase” and the “dopamine/norepinephrine ratio vs vehicle” value ([1]; cerebral cortex) was “no effect”. For the same compound, the norepinephrine vs vehicle ([1]; cerebral cortex) was “significant increase”, the “increase in DA/NE ratio” value ([1]; left ventricle) was 3.5 fold and the dopamine vs vehicle ([1]; left ventricle) was “significant increase”. The “dopamine/norepinephrine ratio vs vehicle” value ([1]; left ventricle) was “significant increase”, the norepinephrine vs vehicle ([1]; left ventricle) was “did not significantly lower” and the “increase in DA/NE ratio” value ([1]; mesenteric artery) was 2.6 fold. The dopamine vs vehicle ([1]; mesenteric artery) was “significant increase”, the “dopamine/norepinephrine ratio vs vehicle” value ([1]; mesenteric artery) was “significant increase” and the norepinephrine vs vehicle ([1]; mesenteric artery) was “did not significantly lower”.

With `CN1[C@@H]2C[C@@H](OC(=O)[C@H](CO)c3ccccc3)C[C@H]1[C@@H]1O[C@@H]12` [scopolamine, Scopolamine HBr, reference compound] the “number of trials completed” value ([2]; all scopolamine treated groups) was “significantly reduced” and the “percentage of correct choices vs Vehicle/Vehicle” value ([2]; scopolamine HBr 0.1 mg/kg s.c.) was “significantly impaired percentage of correct choices”.

For `CCOC(=O)[C@H](CCc1ccccc1)N[C@@H](C)C(=O)N1CCC[C@H]1C(=O)O` [enalapril, reference compound], the body weights (SHRs; enalapril 1 mg/kg) was “slightly decreased body weight”, the heart rate (SHRs; enalapril 1 mg/kg) was “did not affect HR” and the left ventricular mass (SHRs; enalapril 1 mg/kg) was “did not regress the hypertrophy”. The “antihypertensive effect of mono-administration” value (SHRs; enalapril 1 mg/kg or nepicastat 30 mg/kg (Series III)) was “failed to lower blood pressure; also recorded: only a small antihypertensive effect; also recorded: did not induce significant antihypertensive effects”, the “antihypertensive effect throughout the study” value (SHRs; enalapril 10 mg/kg) was −20 to −30 mmHg and the body weights (SHRs; enalapril 10 mg/kg) was “significantly decreased (p<0.05) or had no effect”. The heart rate (SHRs; enalapril 10 mg/kg) was “transient small tachycardia”, the left ventricular mass (SHRs; enalapril 10 mg/kg) was “significantly reduced left ventricular mass in Series II, but not in Series I” and the “maximal decrease in MBP” value (SHRs; enalapril 10 mg/kg, within 1 hr after dosing on day 5) was −29 mmHg.

For `C[C@H](N)Cc1ccccc1` [d-amphetamine], the “change in body weight from pre-dose” value (rats; 10 days) was “significantly smaller change in body weight”, the pre-pulse inhibition (rats; dosing day ten) was “Neither d-amphetamine nor SKF-102698 was significantly different” and the “locomotor activity vs vehicle” value (rats; dosing day ten, nepicastat 5, 15, 50, SKF-102698 50 mg/kg bid, clonidine 20 μg/kg, d-amphetamine 2 mg/kg bid) was “significantly higher locomotor activity”. The body core temperature (rats; dosing days one, five, ten) was “significantly increasing body core temperature on day one”.
